Source: publication PMC4839570, “Novel Anthra[1,2-c][1,2,5]Thiadiazole-6,11-Diones as Promising Anticancer Lead Compounds: Biological Evaluation, Characterization & Molecular Targets Determination” (PLoS ONE, 2016)
Read-outs that look alike come from different tables or passages of the source.

What was measured:
U251 = assay: JFCR-39 cytotoxicity screen; format: cell-based
PC-3 = assay: NCI-60 cytotoxicity screen; format: cell-based
HCT-116 = assay: JFCR-39 cytotoxicity screen; format: cell-based
M14 = assay: NCI-60 cytotoxicity screen; format: cell-based
[1] = tested on: NCI 60 human cancer cell lines; assay: NCI-60 screen, means, ranges and selectivity over panels; format: cell-based; conditions: for GI50: Homo sapiens
Description: Both NSC745885 and NSC757963 satisfied the pre-determined threshold inhibition criteria of the NCI-60 One-Dose Screening, so they were tested against the panels of 60 cancer cell lines of NCI (NCI-60) and 39 cancer cell lines of JFCR (JFCR-39), each cell line was tested at five small doses of our compounds. Results are expressed as the 50% growth inhibition concentration (GI50), the 50% lethal concentration (LC50) and the total growth inhibition (TGI), compared to the values of untreated control cells.
To characterize the selectivity of NSC745885 and NSC757963 further among the different types of cancer, we determined their selectivity ratios towards each cell line subpanel used in the cytotoxicity experiments. […] The promising activity of this compound is evident from the small mean GI50 values. […] The strongest activity was towards the leukemia subpanel and the least one was towards the colon cancer subpanel. […] The strongest activity was towards the melanoma subpanel and the least one was towards the colon cancer subpanel.
All cell lines were published before.

SF-295 = assay: JFCR-39 cytotoxicity screen; format: cell-based
RXF-631L = assay: JFCR-39 cytotoxicity screen; format: cell-based
OVCAR-5 = assay: NCI-60 cytotoxicity screen; format: cell-based
HS 578T = assay: NCI-60 cytotoxicity screen; format: cell-based; conditions: Homo sapiens
HCT-15 = assay: JFCR-39 cytotoxicity screen; format: cell-based
OVCAR-4 [2] = assay: JFCR-39 cytotoxicity screen; format: cell-based
SF-539 = assay: NCI-60 cytotoxicity screen; format: cell-based
EKVX = assay: NCI-60 cytotoxicity screen; format: cell-based
MDA-MB-231/ATCC = assay: NCI-60 cytotoxicity screen; format: cell-based
MKN45 = assay: JFCR-39 cytotoxicity screen; format: cell-based
[3] = tested on: NF-κB p65 subunit translocation in OVCAR-3 cells; assay: NF-κB inhibition by immunocytochemical fluorescent staining; format: cell-based, human; conditions: 5 μM
Description: Inhibition of NF-κB was detected according to Ataie-Kachoie et al.. Briefly, each group of tested cells were seeded on coverslips treated with HCl and ethanol, and autoclaved prior to use. Immunostaining of the p65 subunit of NF-κB was done by permeabilizing the cells with Triton […], then by treating the cells with anti-NF-κB p65 rabbit monoclonal primary antibody [E379] Abcam # ab32536, followed by Alexa Fluor® 488 Donkey anti-rabbit IgG secondary antibody Biolegend # 406416. Nuclei of cells were stained with 4',6-diamidino-2-phenylindole (DAPI). Images were acquired using fluorescence microscope. Tested cells were divided into five groups which are no treatment control, no primary antibody control, PDTC (50 μM) treated control, NSC745885 (5 μM) and NSC757963 (5 μM) treated controls.

CCRF-CEM = assay: NCI-60 cytotoxicity screen; format: cell-based
OVCAR-3 [4] = conditions: five-dose
OVCAR-3 [5] = conditions: JFCR
ACHN = assay: JFCR-39 cytotoxicity screen; format: cell-based
[6] = tested on: normal cardiac myoblast H9c2 cells; conditions: rat
Description: Briefly, 96 well microtiter plates were inoculated with the specified human cancer cell lines in RPMI 1640 medium containing 5% fetal bovine serum and 2 mM L-glutamine at the specified plating densities. The microtiter plates were incubated at 37°C, 5% CO2, and 100% relative humidity for 24 h. The test compounds were solubilized in DMSO at 400-fold the desired final maximum test concentration, diluted with complete medium containing gentamicin and added to the wells of the microtiter plates to achieve the final desired compound concentration, then incubated for an additional 48 h at the same incubation conditions. The media were removed, the cells were fixed then stained with sulforhodamine B and the unbound dye was removed by washing with acetic acid. The bound dye was resolubilized with trizma base and the absorbance at 515 nm was measured. Cells were stained with the WST-1 cell proliferation reagent instead of sulforhodamine B in some experiments and absorbance were measured at 440 nm. The three dose response parameters GI50, TGI and LC50 were calculated for each experimental compound as follows [48]: For values where Ti ≥ Tz the formula is [ (Ti-Tz) / (C-Tz)] x 100 For values where Ti < Tz the formula is [ (Ti-Tz) / Tz] x 100 Where Ti is the absorbance of the solubilized Sulforhodamine B (SRB) (representing the number of cells) of the five different concentrations of the compound used in the test, Tz is the absorbance of the SRB at time zero, and C is the absorbance of the SRB of the control growth.

NCI-H522 = assay: NCI-60 cytotoxicity screen; format: cell-based
OVCAR-4 [7] = assay: NCI-60 cytotoxicity screen; format: cell-based
[8] = Homo sapiens, Fig 7, read-out: mean log10 of the GI50 values (converted)
[9] = Homo sapiens, five-dose, read-out: GI50
[10] = Homo sapiens, five-dose, read-out: LC50 (the source's name)
[11] = Homo sapiens, read-out: LC50 (the source's name)

O=C1c2ccccc2C(=O)c2c1cc(Cl)c1nsnc21 [NSC757963]
TGI (U251): 3.9 µM
GI50 (U251; Homo sapiens, U-251): 1.9 µM
CC50 (U251; Homo sapiens, U-251, read-out: LC50 (the source's name)): 8.1 µM
GI50 (PC-3; [8]): 2.57 µM
GI50 (PC-3; [9]): 2.85 µM
CC50 (PC-3; [10]): > 100 µM
TGI (PC-3; five-dose): 30.2 µM
TGI (HCT-116): 4.0 µM
GI50 (HCT-116; Homo sapiens): 1.9 µM
CC50 (HCT-116; [11]): 8.3 µM
GI50 (M14; [8]): 15.1 µM
GI50 (M14; [9]): 17 µM
CC50 (M14; [10]): 59.7 µM
TGI (M14; five-dose): 31.9 µM
selectivity ratios of the NCI subpanels other than leukemia [1]: less than 3
GI50 ([1]; Fig 7, read-out: MG-MID of mean log10 GI50 (converted)): 4.47 µM
GI50 ([1]; NCI Breast Cancer, read-out: Mean GI50 of subpanel): 5.11 µM
GI50 ([1]; NCI CNS Cancer, read-out: Mean GI50 of subpanel): 7.71 µM
GI50 ([1]; NCI Colon Cancer, read-out: Mean GI50 of subpanel): 11.4 µM
GI50 ([1]; NCI Leukemia, read-out: Mean GI50 of subpanel): 1.4 µM
GI50 ([1]; NCI Melanoma, read-out: Mean GI50 of subpanel): 8.44 µM
GI50 ([1]; NCI Non-Small Cell Lung Cancer, read-out: Mean GI50 of subpanel): 20.7 µM
GI50 ([1]; NCI Ovarian Cancer, read-out: Mean GI50 of subpanel): 6.77 µM
GI50 ([1]; NCI Prostate Cancer, read-out: Mean GI50 of subpanel): 8.53 µM
GI50 ([1]; NCI Renal Cancer, read-out: Mean GI50 of subpanel): 18.5 µM
GI50 ([1]; all NCI subpanels, read-out: mean GI50 values of the NCI 60 subpanels, range): 1.4 to 20.7 µM
GI50 ([1]; equivalent to MID, read-out: Mean GI50 of all NCI-60 cell line panels): 10.9 µM
GI50 ([1]; five-dose, read-out: NCI-60 GI50 values, range over cell lines): 0.33 to 72.8 µM
Selectivity ratio ([1]; NCI Breast Cancer): 2.14
Selectivity ratio ([1]; NCI CNS Cancer): 1.41
Selectivity ratio ([1]; NCI Colon Cancer): 0.96
Selectivity ratio ([1]; NCI Leukemia): 7.79
Selectivity ratio ([1]; NCI Melanoma): 1.29
Selectivity ratio ([1]; NCI Non-Small Cell Lung Cancer): 0.53
Selectivity ratio ([1]; NCI Ovarian Cancer): 1.61
Selectivity ratio ([1]; NCI Prostate Cancer): 1.28
Selectivity ratio ([1]; NCI Renal Cancer): 0.59
TGI (SF-295): 3.5 µM
GI50 (SF-295; Homo sapiens): 1.9 µM
CC50 (SF-295; [11]): 6.5 µM
TGI (RXF-631L): 3.1 µM
GI50 (RXF-631L; Homo sapiens): 1.7 µM
CC50 (RXF-631L; [11]): 5.9 µM
GI50 (OVCAR-5; [8]): 17.4 µM
GI50 (OVCAR-5; [9]): 17.6 µM
CC50 (OVCAR-5; [10]): 56.8 µM
TGI (OVCAR-5; five-dose): 31.6 µM
GI50 (HS 578T; Hs-578T, HS578T, Fig 7, read-out: mean log10 of the GI50 values (converted)): 2.51 µM
GI50 (HS 578T; HS 578T, five-dose, read-out: GI50): 2.38 µM
CC50 (HS 578T; HS 578T, five-dose, read-out: LC50 (the source's name)): > 100 µM
TGI (HCT-15): 3.9 µM
GI50 (HCT-15; Homo sapiens): 1.9 µM
CC50 (HCT-15; [11]): 7.9 µM
TGI (OVCAR-4 [2]): 3.0 µM
GI50 (OVCAR-4 [2]; Homo sapiens): 1.6 µM
CC50 (OVCAR-4 [2]; [11]): 5.6 µM
GI50 (SF-539; [8]): 9.12 µM
GI50 (SF-539; [9]): 8.23 µM
CC50 (SF-539; [10]): 50.8 µM
TGI (SF-539; five-dose): 21.6 µM
GI50 (EKVX; [8]): 10.5 µM
GI50 (EKVX; [9]): 11 µM
CC50 (EKVX; [10]): 48.7 µM
TGI (EKVX; five-dose): 23.2 µM
GI50 (MDA-MB-231/ATCC; [8]): 1.17 µM
GI50 (MDA-MB-231/ATCC; [9]): 1.32 µM
CC50 (MDA-MB-231/ATCC; [10]): 8.63 µM
TGI (MDA-MB-231/ATCC; five-dose): 3.37 µM
TGI (MKN45): 5.1 µM
GI50 (MKN45; Homo sapiens, MKN-45): 2 µM
CC50 (MKN45; Homo sapiens, MKN-45, read-out: LC50 (the source's name)): 17 µM
nuclear translocation of the NF-κB p65 subunit [3]: significantly capable of preventing the nuclear translocation of the NF-κB p65 subunit
GI50 (CCRF-CEM; [8]): 0.389 µM
GI50 (CCRF-CEM; [9]): 0.33 µM
CC50 (CCRF-CEM; [10]): > 100 µM
TGI (CCRF-CEM; five-dose): 2.37 µM
TGI (OVCAR-3 [4]): 3.23 µM
TGI (OVCAR-3 [5]): 4.2 µM
TGI (ACHN): 3.4 µM
GI50 (ACHN; Homo sapiens): 1.8 µM
CC50 (ACHN; [11]): 6.5 µM
cytotoxicity towards normal cardiac myoblast H9c2 cells [6]: significantly less cytotoxic effects on H9c2 cells at higher doses than doxorubicin
GI50 (NCI-H522; [8]): 1.66 µM
GI50 (NCI-H522; [9]): 1.6 µM
CC50 (NCI-H522; [10]): 8.18 µM
TGI (NCI-H522; five-dose): 3.62 µM
GI50 (OVCAR-4 [7]; [8]): 1.66 µM
GI50 (OVCAR-4 [7]; [9]): 1.46 µM
CC50 (OVCAR-4 [7]; [10]): 5.5 µM
TGI (OVCAR-4 [7]; five-dose): 2.83 µM
